Results published in patent publication US10233156B2, “9-membered fused ring derivative” (Shionogi & Co., Ltd., priority 2015, dated 2019).

Tests used:
[1] = molecular target: recombinant human ACC2 (Homo sapiens (Human), UniProt O00763); test: Measurement of inhibitory activity on human ACC2 (MALDI-TOF MS, conversion of acetyl CoA to malonyl CoA); format: biochemical; details: recombinant human ACC2, room temperature, 1 to 3 hours
Description: After a cDNA encoding human ACC2 (27 amino acid residue to 2458 amino acid residues from the N-terminus) was cloned from human kidney cDNA library (Clontech), human ACC2 gene containing His-tag sequence at 5′ terminus was inserted into pFastBac1 (Invitrogen). Recombinant baculovirus was generated using Bac-to-Bac baculovirus expression system (Invitrogen) according to the manufacturer's protocol. To express human ACC2, Sf-9 cells were infected with recombinant baculovirus. After infected cells were disrupted, the filtrated lysate was subjected to Ni-affinity chromatography and anion-exchange chromatography. The fractions containing human ACC2 protein were pooled as recombinant human ACC2 solution.
(§1) Recombinant human ACC1 and recombinant human ACC2, which were prepared by the method mentioned above, were preincubated with assay buffer solution (50 mM HEPES-KOH (pH 7.4), 10 mM magnesium chloride, 6-10 mM potassium citrate, 4 mM reduced form of glutathione, 1.5 mg/ml bovine serum albumin) for one hour. Then, 0.2 μL of each this invention compound solution (in DMSO) were dispensed to 384-well microplate, 5 μL of the preincubated enzyme solution and 5 μL of substrate solution (50 mM HEPES-KOH (pH 7.4), 1 mM ATP, 0.8 mM acetyl CoA and 25-50 mM potassium bicarbonate) were added to microplate. After centrifugation and shaking, the reaction mixtures were incubated in a humidified box at room temperature for 1 to 3 hours. After the incubation, the enzyme reactions were stopped by the addition of EDTA. Then, after the samples were cocrystallized with CHCA (α-cyano-4-hydroxy cinnamic acid) matrices on MALDI target plate, by using the matrix assist laser […] time-of-flight mass spectrometer (MALDI-TOF MS), samples were measured in reflector negative mode. Deprotonated ions of acetyl CoA (AcCoA) of substrate and malonyl CoA (MalCoA) of the reaction product were detected, then, the conversion rates of acetyl CoA to malonyl CoA was calculated by the intensity of [MalCoA-H]−/(Intensity of [MalCoA-H].+Intensity of [AcCoA-H]—) using each signal strength. […] In addition, potassium citrate concentrations in assay buffer solution, potassium hydrogen carbonate concentrations in substrate solution and incubation time were adjusted by each lot of enzyme.

[2] = molecular target: recombinant human ACC1 (Homo sapiens (Human), UniProt Q13085); test: Measurement of inhibitory activity on human ACC1 (MALDI-TOF MS, conversion of acetyl CoA to malonyl CoA); format: biochemical; details: recombinant human ACC1, room temperature, 1 to 3 hours
Description: After a cDNA encoding human ACC1 (1 amino acid residue to 2346 amino acid residues from the N-terminus) was cloned from human liver cDNA library (BioChain), human ACC1 gene containing myc-tag and His-tag sequence at 3′ terminus was inserted into pIEXBAC3 (Novagen). Recombinant baculovirus was generated using FlashBACGOLD system (Oxford Expression Technologies) according to the manufacturer's protocol. To express human ACC1, Sf-9 cells were infected with recombinant baculovirus. After infected cells were disrupted, the filtrated lysate was subjected to Ni-affinity chromatography and anion-exchange chromatography. The fractions containing human ACC1 protein were pooled as recombinant human ACC1 solution.
as §1

Chain of recombinant human ACC2 (O00763 27-2458): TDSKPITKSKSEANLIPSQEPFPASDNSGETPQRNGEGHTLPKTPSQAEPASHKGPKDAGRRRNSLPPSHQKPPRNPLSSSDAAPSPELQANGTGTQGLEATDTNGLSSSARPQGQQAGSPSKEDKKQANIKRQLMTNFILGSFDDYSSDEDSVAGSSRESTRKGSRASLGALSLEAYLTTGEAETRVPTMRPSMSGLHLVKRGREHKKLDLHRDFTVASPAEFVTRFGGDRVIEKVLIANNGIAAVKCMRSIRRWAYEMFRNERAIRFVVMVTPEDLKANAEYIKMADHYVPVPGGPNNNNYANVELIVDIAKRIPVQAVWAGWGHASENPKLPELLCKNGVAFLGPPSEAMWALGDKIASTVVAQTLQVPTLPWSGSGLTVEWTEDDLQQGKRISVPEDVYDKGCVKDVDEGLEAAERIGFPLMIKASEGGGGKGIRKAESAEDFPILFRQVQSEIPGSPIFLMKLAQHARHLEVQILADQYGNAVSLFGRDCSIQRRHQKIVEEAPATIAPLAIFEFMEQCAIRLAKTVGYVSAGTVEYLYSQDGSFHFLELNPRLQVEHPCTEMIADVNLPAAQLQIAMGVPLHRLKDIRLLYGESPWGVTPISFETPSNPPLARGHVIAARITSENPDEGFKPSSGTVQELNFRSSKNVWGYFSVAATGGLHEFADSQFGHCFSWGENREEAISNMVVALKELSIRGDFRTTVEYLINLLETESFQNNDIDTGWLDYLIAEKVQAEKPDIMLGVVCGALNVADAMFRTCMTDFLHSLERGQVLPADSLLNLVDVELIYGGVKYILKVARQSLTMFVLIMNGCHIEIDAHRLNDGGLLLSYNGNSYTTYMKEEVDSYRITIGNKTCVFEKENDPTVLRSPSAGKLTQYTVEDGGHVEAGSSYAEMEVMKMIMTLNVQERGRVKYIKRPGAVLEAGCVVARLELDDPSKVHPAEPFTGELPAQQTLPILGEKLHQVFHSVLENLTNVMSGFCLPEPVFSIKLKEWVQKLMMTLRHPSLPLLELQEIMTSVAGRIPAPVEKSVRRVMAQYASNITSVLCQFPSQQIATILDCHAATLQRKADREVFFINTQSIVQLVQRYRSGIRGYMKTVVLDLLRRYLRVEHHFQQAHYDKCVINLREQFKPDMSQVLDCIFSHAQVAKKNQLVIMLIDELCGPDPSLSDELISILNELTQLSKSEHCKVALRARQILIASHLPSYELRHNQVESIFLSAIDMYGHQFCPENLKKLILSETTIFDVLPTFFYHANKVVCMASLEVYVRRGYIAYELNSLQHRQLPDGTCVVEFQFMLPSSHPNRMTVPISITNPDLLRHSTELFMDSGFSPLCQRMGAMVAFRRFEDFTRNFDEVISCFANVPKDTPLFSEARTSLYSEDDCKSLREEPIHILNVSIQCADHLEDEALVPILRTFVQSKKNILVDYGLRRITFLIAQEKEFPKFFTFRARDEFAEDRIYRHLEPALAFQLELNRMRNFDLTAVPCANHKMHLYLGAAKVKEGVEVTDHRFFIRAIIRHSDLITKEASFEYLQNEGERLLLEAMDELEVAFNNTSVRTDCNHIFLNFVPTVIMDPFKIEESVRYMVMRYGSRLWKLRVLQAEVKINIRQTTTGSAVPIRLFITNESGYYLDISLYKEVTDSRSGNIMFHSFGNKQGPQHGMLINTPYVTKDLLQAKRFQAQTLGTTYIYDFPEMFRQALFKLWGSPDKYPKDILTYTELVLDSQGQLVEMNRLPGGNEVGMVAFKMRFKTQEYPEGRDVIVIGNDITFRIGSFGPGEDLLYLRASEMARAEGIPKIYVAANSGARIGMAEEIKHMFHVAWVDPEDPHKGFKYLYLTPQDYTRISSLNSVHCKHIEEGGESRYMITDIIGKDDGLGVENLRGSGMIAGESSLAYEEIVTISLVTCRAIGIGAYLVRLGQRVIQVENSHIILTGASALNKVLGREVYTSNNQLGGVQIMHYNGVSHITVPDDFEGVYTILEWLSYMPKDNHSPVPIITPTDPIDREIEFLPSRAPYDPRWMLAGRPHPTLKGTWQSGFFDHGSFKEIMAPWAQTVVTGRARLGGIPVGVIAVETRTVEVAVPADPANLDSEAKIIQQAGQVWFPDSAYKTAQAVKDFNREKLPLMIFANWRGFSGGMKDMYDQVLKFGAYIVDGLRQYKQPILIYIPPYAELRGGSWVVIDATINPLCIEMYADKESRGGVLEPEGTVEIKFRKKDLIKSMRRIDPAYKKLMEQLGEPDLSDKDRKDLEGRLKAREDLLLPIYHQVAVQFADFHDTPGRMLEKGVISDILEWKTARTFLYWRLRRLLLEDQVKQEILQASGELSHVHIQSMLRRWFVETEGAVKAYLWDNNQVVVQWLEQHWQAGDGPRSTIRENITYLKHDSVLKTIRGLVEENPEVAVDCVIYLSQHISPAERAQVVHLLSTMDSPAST

What does the source list for `CC(=O)N[C@@H](C)CC(F)(F)[C@@H]1CC[C@@H](Oc2nc3c(F)cc(OCC(F)F)c(F)c3n2C)CO1` [Example I-230]?
IC50 [1]: 89 nM; IC50 [2]: > 100000 nM
